The test deals with T1, human renin (Homo sapiens, UniProt P00797).
T1 sequence (P00797 67-406): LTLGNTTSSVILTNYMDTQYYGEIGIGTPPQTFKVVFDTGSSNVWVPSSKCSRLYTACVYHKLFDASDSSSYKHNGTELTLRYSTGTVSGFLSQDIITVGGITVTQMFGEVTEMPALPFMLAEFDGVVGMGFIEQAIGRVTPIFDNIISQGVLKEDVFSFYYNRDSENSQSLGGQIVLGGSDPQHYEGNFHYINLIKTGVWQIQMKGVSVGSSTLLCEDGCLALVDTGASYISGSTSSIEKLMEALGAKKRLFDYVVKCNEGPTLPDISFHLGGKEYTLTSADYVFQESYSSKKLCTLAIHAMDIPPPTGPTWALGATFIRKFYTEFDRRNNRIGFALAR
The test can be described thus: In vitro test with pure human renin. The test is classed as biochemical. The following applies: human tetradecapeptide renin substrate (hTD), pH 7.4, 3 hours at 37° C. vs 4° C., angiotensin I measured via RIA. The protocol: In vitro test with pure human renin
The test is carried out in Eppendorf test tubes. The incubation mixture consists of (1) 100 μl of human renin in buffer A (0.1M sodium phosphate solution, pH 7.4, containing 0.1% bovine serum albumin, 0.1% sodium azide and 1 mM ethylenediaminetetraacetic acid), sufficient for a renin activity of 2-3 ng of angiotensin I/ml/hr.; (2) 145 μl of buffer A; (3) 30 μl of a 10 μM human tetradecapeptide renin substrate (hTD) in 10 mM hydrochloric acid; (4) 15 μl of dimethyl sulphoxide with or without inhibitor and (5) 10 μl of a 0.03 molar solution of hydroxyquinoline sulphate in water.
The samples are incubated for 3 hours at 37° C. or 4° C. in triplicate. 2×100 μl samples per experimental test tube are used in order to measure the production of angiotensin I via RIA (standard radioimmunoassay; clinical assay solid phase kit). Cross reactivities of the antibody used in the RIA are: angiotensin I 100%; angiotensin II 0.0013%; hTD (angiotensin I-Val-Ile-His-Ser-OH) 0.09%. The production of angiotensin I is determined by the difference between the experiment at 37° C. and that at 4° C.
The following controls are carried out:
(a) Incubation of hTD samples without renin and without inhibitor at 37° C. and 4° C. The difference between these two values gives the base value of angiotensin I production.
(b) Incubation of hTD samples with renin, but without inhibitor at 37° C. and 4° C. The difference between these values give the maximal value of angiotensin I production.
In each sample the base value of the angiotensin I production is subtracted from the angiotensin I production which is determined. The difference between the maximal value and the base value gives the value of the maximal substrate hydrolysis (=100%) by renin.
The results are given as IC50 values which denote that concentration of the inhibitor at which the enzymatic activity is inhibited by 50%. The IC50 values are determined from a linear regression curve from a logit-log plot.

Turning to `CCCCCC(=O)[C@@H](C[C@H](O)[C@H](CC1CCCCC1)NC(=O)[C@H](Cc1c[nH]cn1)NC(=O)[C@@H](CC(=O)C(C)(C)C)Cc1ccccc1)C(C)C` [C, (S)-N-[(1S,2S,4S)-1-(cyclohexylmethyl)-2-hydroxy-4-isopropyl-5-oxodecyl]-α-[(R)-α-(3,3-dimethyl-2-oxobutyl]hydrocinnamamido]imidazole-4-propionamide], inhibition was half-maximal at 7 nM (IC50).
Then `CCCCNC(=O)C[C@@H](C[C@H](O)[C@H](CC1CCCCC1)NC(=O)[C@H](Cc1c[nH]cn1)NC(=O)[C@@H](CC(=O)C(C)(C)C)Cc1ccccc1)C(C)C` [A, (S)-N-[(1S,2S,4R)-4-[(Butylcarbamoyl)methyl]-1-(cyclohexylmethyl)-2-hydroxy-5-methylhexyl]-α-[(R)-α-(3,3-dimethyl-2-oxobutyl)hydrocinnamamido]imidazole-4-propionamide], with 3 nM; and `CCC(=O)OCC[C@@H](C[C@H](O)[C@H](CC1CCCCC1)NC(=O)[C@H](Cc1c[nH]cn1)NC(=O)[C@H](Cc1ccccc1)NC(=O)OC(C)(C)C)C(C)C` [E, t-butyl [(S)-α-[[(S)-1-[[(1S,2S,4S)-1-(cyclohexylmethyl)-2-hydroxy-4-isopropyl-6-(propionyloxy)hexyl]carbamoyl]-2-imidazol-4-ylethyl]carbamoyl]phenethyl]carbamate], with 9 nM; and `CC(C)[C@@H](/C=C/C(=O)NCc1ccccn1)C[C@H](O)[C@H](CC1CCCCC1)NC(=O)[C@H](Cc1c[nH]cn1)NC(=O)[C@@H](CC(=O)C(C)(C)C)Cc1ccccc1` [D, (S)-N-[(1S,2S,4S,E)-1-(cyclohexylmethyl)-2-hydroxy-4-isopropyl-6-[(2-pyridylmethyl)carbamoyl]-5-hexenyl]-α-[(R)-α-(3,3-dimethyl-2-oxobutyl)hydrocinnamamido]imidazole-4-propionamide], with 13 nM.
`CC(C)C(CC(O)C(CC1CCCCC1)NC(=O)C(Cc1c[nH]cn1)NC(=O)C(Cc1ccccc1)NC(=O)C1CCCN1C(=O)OC(C)(C)C)C(O)CNCCc1ccccc1` (single isomer, unassigned) [G, (2S or R,3S,5S,6S)-6-(Boc-D-Pro-Phe-His-NH)-7-cyclohexyl-3-isopropyl-1-(phenethylamino)-2,5-heptanediol] registered an IC50 of 11 nM.
`CC(C)C(CC(O)C(CC1CCCCC1)NC(=O)C(Cc1c[nH]cn1)NC(=O)C(Cc1ccccc1)NC(=O)C1CCCN1C(=O)OC(C)(C)C)C(O)CNCCc1ccccc1` (single isomer, unassigned) [H, (2R or S,3S,5S,6S)-6-(Boc-D-Pro-Phe-His-NH)-7-cyclohexyl-3-isopropyl-1-(phenethylamino)-2,5-heptanediol]: the IC50 was determined as 4 nM.
As for `CC(C)C(CC(O)C(CC1CCCCC1)NC(=O)C(Cc1c[nH]cn1)NC(=O)C(Cc1ccccc1)NC(=O)C1CCCN1C(=O)OC(C)(C)C)C(O)CNCc1ccccn1` (racemic) [I, (2RS,3S,5S,6S)-6-(Boc-D-Pro-Phe-His-NH)-7-cyclohexyl-3-isopropyl-1-[(2-pyridylmethyl)amino]-2,5-heptanediol], the figure is 8 nM; as for `CC(C)[C@@H](CCOC(=O)C(C)(C)C)C[C@H](O)[C@H](CC1CCCCC1)NC(=O)C(Cc1c[nH]cn1)NC(=O)[C@H](Cc1ccccc1)NC(=O)[C@H]1CCCN1C(=O)OC(C)(C)C` (mixture of isomers) [F, t-butyl (R)-2-[[(S)-α-[[(R and S)-1-[[(1S,2S,4S)-1-(cyclohexylmethyl]-2-hydroxy-4-isopropyl-6-(pivaloyloxy)hexyl]carbamoyl]-2-imidazol-4-ylethyl]carbamoyl]phenethyl]carbamoyl]-1-pyrrolidinecarboxylate], 10 nM; as for `CCCCNC(=O)C[C@@H](C[C@H](O)[C@H](CC1CCCCC1)NC(=O)[C@H](Cc1c[nH]cn1)NC(=O)[C@H](Cc1ccccc1)NC(=O)OC(C)(C)C)C(C)C` [B, t-butyl [(S)-α-[[(S)-1-[[(1S,2S,4R)-4-[(butylcarbamoyl)methyl]-1-(cyclohexylmethyl)-2-hydroxy-5-methylhexyl]carbamoyl]-2-imidazol-4-ylethyl]carbamoyl]phenethyl]carbamate], 9 nM.
